The values below are quoted from earlier work in patent publication US10688050B1 (Synthon B.V., priority 2018, dated 2020).

Assay in data set [1]: not given
This is another data set of the same source.

Read-outs that look alike come from different tables or passages of the source.

`C=CC(=O)N1CCC[C@@H](n2nc(-c3ccc(Oc4ccccc4)cc3)c3c(N)ncnc32)C1` [Ibrutinib, 1-[(3R)-3-[4-amino-3-(4-phenoxyphenyl)-1H-pyrazolo[3,4-d]pyrimidin-1-yl]piperidin-1-yl]prop-2-en-1-one]: the “solubility (BCS)” value is on record as “low”. Turning to `C=CC(=O)N1CCC[C@@H](n2nc(-c3ccc(Oc4ccccc4)cc3)c3c(N)ncnc32)C1` [ibrutinib form A], the solubility entry in data set [1] (pH 1.2) is listed as “slightly soluble”; in data set [1] (pH range from 3 to 8), “practically insoluble”.
